Assay results reported in ChEMBL document CHEMBL1201862, “PubChem BioAssay data set” (2004).
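1) Cells in 96-well plates. 2) Compound, 48 h, 5 concentrations. 3) Linear interpolation between surrounding doses. 4) Unreached endpoint = highest concentration. GI50 is the concentration that inhibits growth by half.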 Activity calls are given as the source filed them. No stated cut-off is given here; in the data, active = GI50 up to about 1.1 µM and inactive = higher.

Experiments:
Experiment in all cases: NCI-60 cell line screen, 48 h
HCC 2998 = test system: HCC 2998
Malme-3M = test system: Malme-3M
MOLT-4 = test system: MOLT-4
ACHN = test system: ACHN
HCT-116 = test system: HCT-116
HOP-62 = test system: HOP-62
OVCAR-4 = test system: OVCAR-4
UACC-257 = test system: UACC-257
RXF 631 = test system: RXF 631
SF-295 = test system: SF-295
NCI-H23 = test system: NCI-H23
RPMI-8226 = test system: RPMI-8226
KM12 = test system: KM12
DLD-1 = test system: DLD-1
COLO 205 = test system: COLO 205
SNB-75 = test system: SNB-75
SF-539 = test system: SF-539
LOX IMVI = test system: LOX IMVI
IGROV-1 = test system: IGROV-1
SK-MEL-5 = test system: SK-MEL-5
DMS-114 = test system: DMS-114
SK-OV-3 = test system: SK-OV-3
CAKI-1 = test system: CAKI-1
K562 = test system: K562
UO-31 = test system: UO-31
CCRF-CEM = test system: CCRF-CEM
HT-29 = test system: HT-29
DMS-273 = test system: DMS-273
OVCAR-8 = test system: OVCAR-8
XF498 = test system: XF498
HL-60 = test system: HL-60
U-251 = test system: U-251
NCI-H460 = test system: NCI-H460
786-0 = test system: 786-0
RXF 393 = test system: RXF 393
LXFL 529 = test system: LXFL 529
SNB-19 = test system: SNB-19
A498 = test system: A498
HCT-15 = test system: HCT-15
A549 = test system: A549
KM-20L2 = test system: KM-20L2
EKVX = test system: EKVX
M19-MEL = test system: M19-MEL
UACC-62 = test system: UACC-62
NCI-H522 = test system: NCI-H522
SW-620 = test system: SW-620
SF-268 = test system: SF-268
SR = test system: SR
SK-MEL-2 = test system: SK-MEL-2
OVCAR-3 = test system: OVCAR-3
M14 = test system: M14

With `CNS(=O)(=O)NNS(=O)(=O)c1ccc(OC)cc1` the GI50 (HCC 2998) was > 100 µM (inactive), the GI50 (Malme-3M) was > 100 µM (inactive) and the GI50 (MOLT-4) was > 100 µM (inactive). For the same compound, the GI50 (ACHN) was > 100 µM (inactive), the GI50 (HCT-116) was > 100 µM (inactive) and the GI50 (HOP-62) was > 100 µM (inactive). For the same compound, the GI50 (OVCAR-4) was > 100 µM (inactive), the GI50 (UACC-257) was > 100 µM (inactive) and the GI50 (RXF 631) was > 100 µM (inactive). For the same compound, the GI50 (SF-295) was > 100 µM (inactive), the GI50 (NCI-H23) was > 100 µM (inactive) and the GI50 (RPMI-8226) was > 100 µM (inactive). The GI50 (KM12) was > 100 µM (inactive), the GI50 (DLD-1) was > 100 µM (inactive) and the GI50 (COLO 205) was > 100 µM (inactive). The GI50 (SNB-75) was > 100 µM (inactive), the GI50 (SF-539) was > 100 µM (inactive) and the GI50 (LOX IMVI) was > 100 µM (inactive). The GI50 (IGROV-1) was > 100 µM (inactive), the GI50 (SK-MEL-5) was > 100 µM (inactive) and the GI50 (DMS-114) was > 100 µM (inactive). For the same compound, the GI50 (SK-OV-3) was > 100 µM (inactive), the GI50 (CAKI-1) was > 100 µM (inactive) and the GI50 (K562) was > 100 µM (inactive). For the same compound, the GI50 (UO-31) was > 100 µM (inactive), the GI50 (CCRF-CEM) was > 100 µM (inactive) and the GI50 (HT-29) was > 100 µM (inactive). The GI50 (DMS-273) was > 100 µM (inactive), the GI50 (OVCAR-8) was > 100 µM (inactive) and the GI50 (XF498) was > 100 µM (inactive). For the same compound, the GI50 (HL-60) was > 100 µM (inactive), the GI50 (U-251) was > 100 µM (inactive) and the GI50 (NCI-H460) was > 100 µM (inactive). The GI50 (786-0) was > 100 µM (inactive), the GI50 (RXF 393) was > 100 µM (inactive) and the GI50 (LXFL 529) was > 100 µM (inactive). The GI50 (SNB-19) was > 100 µM (inactive), the GI50 (A498) was > 100 µM (inactive) and the GI50 (HCT-15) was greater than 100 µM. For the same compound, the GI50 (A549) was > 100 µM (inactive), the GI50 (KM-20L2) was > 100 µM (inactive) and the GI50 (EKVX) was > 100 µM (inactive). For the same compound, the GI50 (M19-MEL) was > 100 µM (inactive), the GI50 (UACC-62) was > 100 µM (inactive) and the GI50 (NCI-H522) was > 100 µM (inactive). The GI50 (SW-620) was > 100 µM (inactive), the GI50 (SF-268) was > 100 µM (inactive) and the GI50 (SR) was > 100 µM (inactive). For the same compound, the GI50 (SK-MEL-2) was > 100 µM (inactive), the GI50 (OVCAR-3) was > 100 µM (inactive) and the GI50 (M14) was > 100 µM (inactive).
